{"source": "patent US20250290117A1", "about": "“MOLECULAR PHENOTYPIC ANTIMICROBIAL SUSCEPTIBILITY TESTING” (priority 2024, published 2025)", "key": {"E. coli": {"test_system": "E. coli", "assay": "Molecular phenotypic antimicrobial susceptibility test with direct PCR (no extraction DNA purification step)", "type": "cell-based, Escherichia coli", "conditions": "E. coli isolate JJ1887, direct PCR"}, "[1]": {"test_system": "pathogens of clinical samples", "assay": "Molecular phenotypic antimicrobial susceptibility test of clinical samples, extraction DNA purification step prior to PCR (Table 6)", "type": "cell-based", "method_in_brief": "(§1)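 Semi-quantitative PCR read-out: growth was taken as resistance and its absence as sensitivity, with DNA either purified (e.g. bead-based) or amplified directly from lysed sample without extraction. Before PCR, 0.5 McFarland dilutions of incubated clinical specimens were held 12-16 hours with breakpoint-level antimicrobials in culture media, beside a drug-free control.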"}, "[2]": {"test_system": "pathogens of clinical samples", "assay": "Molecular phenotypic antimicrobial susceptibility test of clinical samples, direct PCR without a separate DNA purification step (Table 6)", "type": "cell-based", "method_in_brief": "as §1"}, "[3]": {"conditions": "E. coli, clinical sample of r10-r24"}, "[4]": {"conditions": "E. coli, clinical sample of r158-r172"}, "[5]": {"conditions": "K. aerogenes, clinical sample of r136-r150"}, "[6]": {"conditions": "K. pneumoniae, clinical sample of r121-r135"}, "[7]": {"conditions": "M. morganii, clinical sample of r55-r69"}, "[8]": {"conditions": "M. morganii, clinical sample of r70-r84"}, "[9]": {"conditions": "P. mirabilis, clinical sample of r25-r39"}, "[10]": {"conditions": "P. mirabilis, clinical sample of r40-r54"}, "[11]": {"conditions": "S. aureus, clinical sample of r85-r92"}}}
{"substance": "Trimethoprim/Sulfamethoxazole [TMP/SMX]", "values": [{"measurement": "Ct at Sensitive Breakpoint", "setting": "E. coli; Ct at control (average) 12.832", "result": 13.414}, {"measurement": "Molecular Antimicrobial Susceptibility Result", "setting": "E. coli; at sensitive breakpoint", "result": "Resistant"}, {"measurement": "Molecular Antibiotic Susceptibility Result", "setting": "[1]; [3]", "result": "Sensitive (Antimicrobial wells with pathogen load detected below the control wells (typically >2 cycle thresholds later) may be reported as Sensitive)"}, {"measurement": "Ct", "setting": "[1]; E. coli, clinical sample of r10-r24, Ct Control Avg 18.112", "result": 28.072}, {"measurement": "Molecular Antibiotic Susceptibility Result", "setting": "[1]; [4]", "result": "Sensitive (Antimicrobial wells with pathogen load detected below the control wells (typically >2 cycle thresholds later) may be reported as Sensitive)"}, {"measurement": "Ct", "setting": "[1]; E. coli, clinical sample of r158-r172, Ct Control Avg 20.146", "result": 33.402}, {"measurement": "Molecular Antibiotic Susceptibility Result", "setting": "[1]; [5]", "result": "Sensitive (Antimicrobial wells with pathogen load detected below the control wells (typically >2 cycle thresholds later) may be reported as Sensitive)"}, {"measurement": "Ct", "setting": "[1]; K. aerogenes, clinical sample of r136-r150, Ct Control Avg 19.994", "result": 36.5}, {"measurement": "Molecular Antibiotic Susceptibility Result", "setting": "[1]; [6]", "result": "Sensitive (Antimicrobial wells with pathogen load detected below the control wells (typically >2 cycle thresholds later) may be reported as Sensitive)"}, {"measurement": "Ct", "setting": "[1]; K. pneumoniae, clinical sample of r121-r135, Ct Control Avg 24.272", "result": 34.918}, {"measurement": "Molecular Antibiotic Susceptibility Result", "setting": "[1]; [7]", "result": "Sensitive (Antimicrobial wells with pathogen load detected below the control wells (typically >2 cycle thresholds later) may be reported as Sensitive)"}, {"measurement": "Ct", "setting": "[1]; M. morganii, clinical sample of r55-r69, Ct Control Avg 28.86", "result": "Undet"}, {"measurement": "Molecular Antibiotic Susceptibility Result", "setting": "[1]; [8]", "result": "Sensitive (Antimicrobial wells with pathogen load detected below the control wells (typically >2 cycle thresholds later) may be reported as Sensitive)"}, {"measurement": "Ct", "setting": "[1]; M. morganii, clinical sample of r70-r84, Ct Control Avg 27.053", "result": 30.225}, {"measurement": "Molecular Antibiotic Susceptibility Result", "setting": "[1]; [9]", "result": "Sensitive (Antimicrobial wells with pathogen load detected below the control wells (typically >2 cycle thresholds later) may be reported as Sensitive)"}, {"measurement": "Ct", "setting": "[1]; P. mirabilis, clinical sample of r25-r39, Ct Control Avg 26.064", "result": 30.865}, {"measurement": "Molecular Antibiotic Susceptibility Result", "setting": "[1]; [10]", "result": "Sensitive (Antimicrobial wells with pathogen load detected below the control wells (typically >2 cycle thresholds later) may be reported as Sensitive)"}, {"measurement": "Ct", "setting": "[1]; P. mirabilis, clinical sample of r40-r54, Ct Control Avg 26.987", "result": 33.833}, {"measurement": "Molecular Antibiotic Susceptibility Result", "setting": "[1]; [11]", "result": "Sensitive (Antimicrobial wells with pathogen load detected below the control wells (typically >2 cycle thresholds later) may be reported as Sensitive)"}, {"measurement": "Ct", "setting": "[1]; S. aureus, clinical sample of r85-r92, Ct Control Avg 24.32", "result": 27.399}, {"measurement": "Molecular Antibiotic Susceptibility Result", "setting": "[2]; [3]", "result": "Sensitive (Antimicrobial wells with pathogen load detected below the control wells (typically >2 cycle thresholds later) may be reported as Sensitive)"}, {"measurement": "Ct", "setting": "[2]; E. coli, clinical sample of r10-r24, Ct control avg 12.97", "result": 24.066}, {"measurement": "Molecular Antibiotic Susceptibility Result", "setting": "[2]; [4]", "result": "Sensitive (Antimicrobial wells with pathogen load detected below the control wells (typically >2 cycle thresholds later) may be reported as Sensitive)"}, {"measurement": "Ct", "setting": "[2]; E. coli, clinical sample of r158-r172, Ct control avg 12.894", "result": 28.739}, {"measurement": "Molecular Antibiotic Susceptibility Result", "setting": "[2]; [5]", "result": "Sensitive (Antimicrobial wells with pathogen load detected below the control wells (typically >2 cycle thresholds later) may be reported as Sensitive)"}, {"measurement": "Ct", "setting": "[2]; K. aerogenes, clinical sample of r136-r150, Ct control avg 13.854", "result": 30.511}, {"measurement": "Molecular Antibiotic Susceptibility Result", "setting": "[2]; [6]", "result": "Sensitive (Antimicrobial wells with pathogen load detected below the control wells (typically >2 cycle thresholds later) may be reported as Sensitive)"}, {"measurement": "Ct", "setting": "[2]; K. pneumoniae, clinical sample of r121-r135, Ct control avg […]", "result": 29.719}, {"measurement": "Molecular Antibiotic Susceptibility Result", "setting": "[2]; [7]", "result": "Sensitive (Antimicrobial wells with pathogen load detected below the control wells (typically >2 cycle thresholds later) may be reported as Sensitive)"}, {"measurement": "Ct", "setting": "[2]; M. morganii, clinical sample of r55-r69, Ct control avg 12.09", "result": 22.916}, {"measurement": "Molecular Antibiotic Susceptibility Result", "setting": "[2]; [8]", "result": "Sensitive (Antimicrobial wells with pathogen load detected below the control wells (typically >2 cycle thresholds later) may be reported as Sensitive)"}, {"measurement": "Ct", "setting": "[2]; M. morganii, clinical sample of r70-r84, Ct control avg 11.677", "result": 22.281}, {"measurement": "Molecular Antibiotic Susceptibility Result", "setting": "[2]; [9]", "result": "Sensitive (Antimicrobial wells with pathogen load detected below the control wells (typically >2 cycle thresholds later) may be reported as Sensitive)"}, {"measurement": "Ct", "setting": "[2]; P. mirabilis, clinical sample of r25-r39, Ct control avg 11.801", "result": 23.476}, {"measurement": "Molecular Antibiotic Susceptibility Result", "setting": "[2]; [10]", "result": "Sensitive (Antimicrobial wells with pathogen load detected below the control wells (typically >2 cycle thresholds later) may be reported as Sensitive)"}, {"measurement": "Ct", "setting": "[2]; P. mirabilis, clinical sample of r40-r54, Ct control avg 10.06", "result": 25.628}, {"measurement": "Molecular Antibiotic Susceptibility Result", "setting": "[2]; [11]", "result": "Sensitive (Antimicrobial wells with pathogen load detected below the control wells (typically >2 cycle thresholds later) may be reported as Sensitive)"}, {"measurement": "Ct", "setting": "[2]; S. aureus, clinical sample of r85-r92, Ct control avg 20.309", "result": 28.965}]}
